According to patent US20260297065A1, “AROMATIC SUBSTITUENT-CONTAINING (HETERO) ARYL-IMIDAZOLE COMPOUND, AND PREPARATION METHOD THEREFOR AND USE THEREOF” (OPEN SOURCE THERAPEUTICS, priority 2022, published 2026):

Molecular target: T1, soluble epoxide hydrolase (sEH) (Homo sapiens, UniProt P34913)
T1 sequence (P34913 1-555): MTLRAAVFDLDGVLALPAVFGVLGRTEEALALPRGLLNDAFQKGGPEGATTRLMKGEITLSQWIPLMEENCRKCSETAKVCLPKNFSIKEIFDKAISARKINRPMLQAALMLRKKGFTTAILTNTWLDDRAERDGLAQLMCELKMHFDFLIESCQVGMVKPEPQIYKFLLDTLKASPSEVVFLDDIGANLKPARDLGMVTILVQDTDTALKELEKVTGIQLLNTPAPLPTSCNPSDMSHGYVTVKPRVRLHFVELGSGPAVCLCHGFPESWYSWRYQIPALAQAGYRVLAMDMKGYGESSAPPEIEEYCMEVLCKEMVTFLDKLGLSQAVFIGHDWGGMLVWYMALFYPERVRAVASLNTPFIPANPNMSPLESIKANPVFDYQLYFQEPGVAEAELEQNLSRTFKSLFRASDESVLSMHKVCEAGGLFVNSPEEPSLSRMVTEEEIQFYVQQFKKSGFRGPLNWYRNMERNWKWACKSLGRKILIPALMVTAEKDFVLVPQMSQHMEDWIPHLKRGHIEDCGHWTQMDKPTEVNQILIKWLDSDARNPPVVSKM
Assay: in vitro biochemical activity test, sEH enzyme inhibition with EET substrate (LC-MS)
Details: 90 min pre-incubation at room temperature, 60 min reaction
Experimental: This example relates to the relationship between the structure and activity of (hetero)aryl imidazole compounds containing an aromatic substituent. Specifically, the biochemical activity of the (hetero)aryl imidazole compounds containing an aromatic substituent described in Example 1 as sEH enzyme inhibitors was evaluated by in vitro activity test experiments.
The experimental procedures for evaluating in vitro biochemical activity were described below.
The substrate used in the evaluation experiment was epoxyeicosatrienoic acid (EET). The solutions used in the evaluation experiments were Bis/Tris HCl 25 mM pH 7.0, Bis/Tris HCl 25 mM pH 7.0 containing 0.1 mg/mL BSA was used as buffer A, and Bis/Tris HCl 25 mM pH 7.0 containing 36.3 mM ZnSO4 was used as buffer B.
The specific steps of the evaluation experiment were as follows. 79 μL of buffer A was added to each well in a black 96-well plate and then 1 μL solution of the aromatic substituent-containing (hetero)aryl imidazole compound was added. Then, 10 μL sEH (1 μM) buffer A solution was added to the wells. After pre-incubation at room temperature for 90 min, 10 μL EET (10 μM) buffer A solution was added to trigger the reaction. After the mixture was allowed to react […] for 60 min, 15 μL buffer B and 180 μL acetonitrile were added to quench the reaction, followed by high-speed centrifugation and filtration for later use.
LC-MS was used to detect the concentration of EET in the samples. The final IC50 was calculated based on three independent experiments using Graphpad Prism software.

SMILES | IC50 [nM]
Fc1cc2[nH]c(-c3ccc(C(F)(F)F)cc3)nc2cc1-c1cnc(N2CCOCC2)nc1 [Compound 16, 4-(5-(5-fluoro-2-(4-(trifluoro-methyl)phenyl)-1H-benzo[d]imidazol-6-yl)pyrimidine-2-yl)morpholine] | 0.14
CC(C)n1nccc1-c1cc2nc(-c3ccc(S(C)(=O)=O)cc3)[nH]c2cc1F [Compound 19, 5-fluoro-6-(1-isopropyl-1H-pyrazol-5-yl)-2-(4-(methyl-sulfonyl)phenyl)-1H-benzo[d] imidazole] | 0.98
CN(C)S(=O)(=O)c1ccc(-c2nc3cc(-c4ccnn4C(C)(C)F)c(F)cc3[nH]2)cc1 [Compound 38, 4-(5-fluoro-6-(1-(2-fluoropro-pan-2-yl)-1H-pyrazol-5-yl)-1H-benzo[d]imidazol-2-yl)-N,N-dimethylbenzenesulfon-amide] | 0.045
CN(C)S(=O)(=O)c1ccc(-c2nc3cc(-c4cncnc4C(F)(F)F)c(F)cc3[nH]2)cc1 [Compound 33, 4-(5-fluoro-6-(4-(trifluoro-methyl)pyrimid-5-yl)-1H-benzo [d]imidazol-2-yl)-N,N-dimeth-ylbenzenesulfonamide] | 0.15
Cc1cc(F)ncc1-c1cc2nc(-c3ccc(S(N)(=O)=O)cc3)[nH]c2cc1F [Compound 36, 4-(5-fluoro-6-(6-fluoro-4-methylpyridin-3-yl)-1H-benzo [d]imidazol-2-l)benzenesulfon-amide] | 0.54
Cc1nc(N)ncc1-c1cc2nc(-c3ccc(S(=O)(=O)N(C)C)cc3)[nH]c2c(F)c1F [Compound 27, 4-(6-(2-amino-4-methylpyr-imid-5-yl)-4,5-difluoro-1H-benzo[d]imidazol-2-yl)-N,N-dimethylbenzenesulfonamide] | 0.056
Cc1nc(N)ncc1-c1cc2nc(-c3ccc(S(=O)(=O)N(C)C)cc3)[nH]c2c(F)c1Cl [Compound 31, 4-(6-(2-amino-4-methylpyr-imid-5-yl)-5-chloro-4-fluoro-1H-benzo[d]imidazol-2-yl)-N,N-dimethylbenzenesulfon-amide] | 0.085
Cc1ncc(-c2ccc3[nH]c(-c4ccc(C(F)(F)F)cc4)nc3c2F)cn1 [Compound 14, 7-fluoro-6-(2-methylpyrimid-5-yl)-2-(4-(trifluoromethyl)-phenyl)-1H-benzo[d]imidazole] | 0.94
CN(C)S(=O)(=O)c1ccc(-c2nc3cc(F)c(-c4cnc(N)nc4C(F)F)cc3[nH]2)cc1 [Compound 51, 4-(6-(4-(difluoromethyl)-2-aminopyrimid-5-yl)-5-fluoro-1H-benzo[d]imidazol-2-yl)-N,N-dimethylbenzenesulfon-amide] | 0.016
CC(C)n1ccnc1-c1cc2[nH]c(-c3ccc(C(F)(F)F)cc3)nc2c(F)c1F [Compound 72, 2-(4-(trifluoromethyl)phenyl)-6-(1-isopropyl-1H-imidazol-2-yl)-4,5-difluoro-1H-benzo[d] imidazole] | 0.77
Cc1nn(S(C)(=O)=O)c(C)c1-c1cc2nc(-c3ccc(C(F)(F)F)cc3)[nH]c2cc1F [Compound 24, 6-(3,5-dimethyl-1-(methyl-sulfonyl)-1H-pyrazo1-4-yl)-5-fluoro-2-(4-(trifluoromethyl)-phenyl)-1H-benzo[d]imidazole] | 0.2
Cc1ncc(-c2cc3nc(-c4ccc(S(C)(=O)=O)cc4)[nH]c3cc2Cl)c(Cl)n1 [Compound 4, 5-chloro-6-(4-chloro-2-meth-ylpyrimid-5-yl)-2-(4-(methyl-sulfonyl)phenyl)-1H-benzo[d] imidazole] | 0.99
CC(=O)n1nc(C)c(-c2cc3nc(-c4ccc(C(F)(F)F)cc4)[nH]c3cc2F)c1C [Compound 23, 1-(4-(6-fluoro-2-(4-(trifluoro-methyl)phenyl)-1H-benzo[d]imidazol-5-yl)-3,5-dimethyl-1H-pyrazol-1-yl)ethan-1-one] | 0.29
Nc1ncc(-c2cc3[nH]c(-c4ccc(F)c(C(F)(F)F)c4)nc3c(F)c2F)c(C(F)F)n1 [Compound 81, 5-(2-(3-(trifluoromethyl)-4-fluorophenyl)-4,5-difluoro-1H-benzo[d]imidazol-6-yl)-4-(difluoromethyl)pyrimidine-2-amine] | 0.15
Cc1ccc(-c2cc3nc(-c4ccc(C(F)(F)F)cc4)[nH]c3cc2F)c(Cl)n1 [Compound 12, 6-(2-chloro-6-methylpyridin-3-yl)-5-fluoro-2-(4-(trifluoro-methyl)phenyl)-1H-benzo[d] imidazole] | 0.058
Cc1ncc(-c2cc3nc(-c4ccc(C(F)(F)F)cc4)[nH]c3c(F)c2F)c(C)n1 [Compound 5] | 0.074
Cc1[nH]c(=O)ccc1-c1cc2nc(-c3ccc(S(=O)(=O)N(C)C)cc3)[nH]c2cc1F [Compound 41, 4-(5-fluoro-6-(2-methyl-6-oxo-1,6-dihydropyridin-3-yl)-1H-benzo[d]imidazol-2-yl)-N,N-dimethylbenzenesulfon-amide] | 0.23
Cc1ncc(-c2cc3nc(-c4ccc(S(=O)(=O)N(C)C)cc4)[nH]c3cc2F)c(C)n1 [Compound 29, 4-(6-(2,4-dimethylpyrimid-5-yl)-5-fluoro-1H-benzo[d]imidazol-2-yl)-N,N-dimethyl-benzenesulfonamide] | 0.083
COc1nc(C)ncc1-c1cc2nc(-c3ccc(S(=O)(=O)N(C)C)cc3)[nH]c2cc1F [Compound 32, 4-(5-fluoro-6-(4-methoxy-2-methylpyrimid-5-yl)-1H-benzo[d]imidazol-2-yl)-N,N-dimethylbenzenesulfonamide] | 0.13
Cc1nc(N)ncc1-c1cc2[nH]c(-c3ccc(C(F)F)cc3)nc2c(F)c1F [Compound 44, 5-(2-(4-(difluoromethyl)phen-yl)-4,5-difluoro-1H-benzo[d]imidazol-6-yl)-4-methylpyr-imidine-2-amine] | 0.096
Nc1ncc(-c2cc3[nH]c(-c4ccc(C(F)F)cc4)nc3c(F)c2F)c(C(F)F)n1 [Compound 46, 4-(difluoromethyl)-5-(2-(4-(difluoromethyl)phenyl)-4,5-difluoro-1H-benzo[d]imid-azol-6-yl)pyrimidine-2-amine] | 0.042
Fc1c(-c2ccnn2C2CC2)cc2[nH]c(-c3ccc(C(F)(F)F)cc3)nc2c1F [Compound 75, 2-(4-(trifluoromethyl)phenyl)-6-(1-cyclopropyl-1H-pyrazol-5-yl)-4,5-difluoro-1H-benzo [d]imidazole] | 0.081
CS(=O)(=O)c1ccc(-c2nc3cc(-c4cnc(N5CCOCC5)nc4)c(F)cc3[nH]2)cc1 [Compound 20, 4-(5-(5-fluoro-2-(4-(methyl-sulfonyl)phenyl)-1H-benzo[d]imidazol-6-yl)pyrimidine-2-yl)morpholine] | 2.21
Cc1ncc(-c2cc3nc(-c4ccc(S(=O)(=O)N(C)C)cc4)[nH]c3cc2Cl)c(Cl)n1 [Compound 30, 4-(5-chloro-6-(4-chloro-2-methylpyrimid-5-yl)-1H-benzo [d]imidazol-2-yl)-N,N-dimeth-ylbenzenesulfonamide] | 0.1
CC(C)n1nc(N)cc1-c1cc2[nH]c(-c3ccc(S(=O)(=O)N(C)C)cc3)nc2cc1F [Compound 60, 4-(6-(1-isopropyl-3-amino-1H-pyrazol-5-yl)-5-fluoro-1H-benzo[d]imidazol-2-yl)-N,N-dimethylbenzenesulfonamide] | 0.057
COc1cc(C)c(-c2cc3nc(-c4ccc(S(=O)(=O)N(C)C)cc4)[nH]c3cc2F)cn1 [Compound 39, 4-(5-fluoro-6-(6-methoxy-4-methylpyridin-3-yl)-1H-benzo [d]imidazol-2-yl)-N,N-dimeth-ylbenzenesulfonamide] | 0.088
Nc1ncc(-c2cc3[nH]c(-c4ccc(C(F)(F)F)cc4)nc3c(F)c2F)c(C(F)F)n1 [Compound 68, 5-(2-(4-(trifluoromethyl)phen-yl)-4,5-difluoro-1H-benzo[d]-imidazol-6-yl)-4-(difluoro-methyl)pyrimidine-2-amine] | 0.089
Cc1cc(N)ncc1-c1cc2[nH]c(-c3ccc(S(=O)(=O)N(C)C)cc3)nc2c(F)c1F [Compound 45, 4-(6-(6-amino-4-methylpyr-idin-3-yl)-4,5-difluoro-1H-benzo[d]imidazol-2-yl)-N,N-dimethylbenzenesulfonamide] | 0.033
CC(C)c1nc(N)ncc1-c1cc2nc(-c3ccc(S(=O)(=O)N(C)C)cc3)[nH]c2cc1F [Compound 34, 4-(6-(2-amino-4-isopropyl-pyrimid-5-yl)-5-fluoro-1H-benzo[d]imidazol-2-yl)-N,N-dimethylbenzenesulfonamide] | 0.058
